Results taken from PubChem BioAssay (NCI).
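Cultured in 96-well plates, cells were exposed to test compound for 48 hours across five concentrations. The concentration for 50% growth inhibition is given as GI50. At the TGI there is no net growth.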

Columns and labels:
Test in all cases: NCI tumour cell line growth inhibition, 48 h
NCI-H23 lung = test system: NCI-H23 lung
SK-MEL-2 melanoma = test system: SK-MEL-2 melanoma
NCI-H226 lung = test system: NCI-H226 lung
KM12 colon = test system: KM12 colon
786-0 renal = test system: 786-0 renal
LOX IMVI melanoma = test system: LOX IMVI melanoma
UO-31 renal = test system: UO-31 renal
HCT-15 colon = test system: HCT-15 colon

| Compound | GI50 (NCI-H23 lung) [µM] | TGI (NCI-H23 lung) [µM] | GI50 (SK-MEL-2 melanoma) [µM] | TGI (SK-MEL-2 melanoma) [µM] | GI50 (NCI-H226 lung) [µM] | TGI (NCI-H226 lung) [µM] | GI50 (KM12 colon) [µM] | TGI (KM12 colon) [µM] | GI50 (786-0 renal) [µM] | TGI (786-0 renal) [µM] | GI50 (LOX IMVI melanoma) [µM] | TGI (LOX IMVI melanoma) [µM] | GI50 (UO-31 renal) [µM] | TGI (UO-31 renal) [µM] | GI50 (HCT-15 colon) [µM] | TGI (HCT-15 colon) [µM] |
| --- | --- | --- | --- | --- | --- | --- | --- | --- | --- | --- | --- | --- | --- | --- | --- | --- |
| C[C@@H]1CN(Cc2ccc(/C=C/c3n[nH]c4ccc5nc(-c6cn[nH]c6C(F)(F)F)c6c(c5c34)CCCC6)cc2)C[C@H](C)O1 | 5.71 | 21.7 | 13.5 | 33.8 | 6.19 | 32.8 | 2.03 | 14.3 | 4.09 | 17.5 | 2.33 | 10.8 | 2.15 | 14 | 1.76 | 11.3 |
| O=C(CCCn1ccnc1[N+](=O)[O-])NCCn1cnc([N+](=O)[O-])c1 | – | > 100 | – | > 100 | – | > 100 | – | > 100 | – | > 100 | – | > 100 | – | > 100 | – | > 100 |
| COc1cc2c(cc1OCCCCC(=O)Nc1ccc(-c3nc4ccccc4s3)cc1)N=C[C@@H]1CCCN1C2=O | – | – | 1.95 | 4.22 | 2.91 | 7.83 | 2.94 | 12.4 | 1.56 | 3.51 | 1.57 | 2.91 | 1.66 | 3.66 | 2.85 | 9.81 |
| N#Cc1cc2cc3c4c(c2oc1=O)CCCN4CCC3 | – | > 100 | – | > 100 | – | > 100 | – | > 100 | – | > 100 | – | > 100 | – | > 100 | – | > 100 |
| CC(=O)OCCC/C(=C\c1ccc2ccccc2c1)[N+](=O)[O-] | 1.79 | 4.65 | 1.71 | 3.62 | 1.76 | 4.16 | 1.59 | 3.18 | 1.81 | 3.35 | – | – | 1.16 | 2.6 | 1.61 | 3.42 |
| COc1ccc2nc(-c3ccccc3)cc(Nc3ccc(/C(C)=N/O)cc3)c2c1 | 2.51 | > 20.9 | 88.4 | > 100 | 1.95 | 4.39 | 3.74 | > 100 | 2.09 | 3.7 | – | – | 41.3 | > 100 | 13.9 | > 63.9 |
| CC(C)(C)c1ccc(C(=O)N/N=C/c2ccc(O)cc2O)cc1 | 0.839 | 13.3 | 1.89 | 16 | 0.412 | 5.75 | 0.418 | 2.48 | 0.53 | 3.3 | 0.224 | 0.975 | 0.24 | 2.28 | 0.325 | 2.12 |
| COc1cc(Nc2ncc3c(n2)-c2ccc(Cl)cc2C(c2c(F)cccc2OC)=NC3)ccc1C(=O)O | 10.9 | 65.1 | 13.4 | 38 | 2.06 | 18.1 | 0.26 | > 92.9 | 4.4 | > 83.6 | 0.91 | 21.3 | 2.57 | 21.4 | 4.77 | > 100 |
| c1ccc(-c2n(Cc3ccc4ccccc4n3)c3ccccc3[n+]2Cc2ccc3ccccc3n2)cc1 | 0.262 | 1.14 | 0.298 | 1.11 | 0.424 | 2.64 | 0.344 | 1.3 | 1.03 | 2.33 | 0.261 | 1.06 | 1.45 | 2.89 | 2.23 | 5.99 |
| Cc1ccc(C(=O)Nc2ccc(CN3CCN(C)CC3)c(C(F)(F)F)c2)cc1C#Cc1cncc2ncccc12 | 0.894 | 15.1 | 0.191 | 0.599 | 0.625 | 6.19 | 0.338 | 4.49 | 0.48 | 1.94 | 0.0978 | 0.554 | 0.191 | 0.903 | 0.318 | 1.28 |
| COc1ccc(/C=C/c2nc(N3CCOCC3)c3cc(F)c(F)cc3n2)cc1OC | 6.05 | > 100 | 9.48 | > 100 | 3.07 | > 100 | 4.59 | > 100 | 4.44 | > 100 | 5.07 | > 100 | 3.65 | > 100 | 3 | > 100 |
| COC(=O)c1[nH]nc(-c2ccccc2)c1N1CCCCC1 | 26.3 | 85.6 | > 100 | > 100 | 13.2 | 36.5 | 55.8 | > 100 | 21.1 | 57.9 | 42 | > 100 | 65.4 | > 100 | 36.2 | > 100 |
| Clc1ccccc1-c1nc2ccccc2[nH]1 | > 100 | > 100 | > 100 | > 100 | > 100 | > 100 | 85.2 | > 100 | > 100 | > 100 | > 100 | > 100 | 90.8 | > 100 | > 100 | > 100 |
| Cc1c(N2C(=O)/C(=C\c3ccc(O)cc3)N=C2c2ccccc2)c(=O)n(-c2ccccc2)n1C | > 100 | > 100 | > 100 | > 100 | > 100 | > 100 | > 100 | > 100 | > 100 | > 100 | > 100 | > 100 | > 100 | > 100 | > 100 | > 100 |
| COc1cc(C(=O)/C=C/c2c(-c3ccc(F)cc3)nc3sccn23)cc(OC)c1OC | 2.43 | 10.6 | 5.59 | > 27.9 | 2.09 | 9.99 | 2.24 | 6.27 | 2.54 | 6.49 | 1.8 | 5.15 | 2.87 | > 27 | 2.87 | 13.1 |
| O=C(Cc1ccc(/C=C/C(=O)c2ncc[nH]2)cc1)Nc1ccc(Br)cc1 | 2.2 | 8.5 | > 16.7 | > 16.7 | 3.31 | 10.1 | 0.864 | 3.13 | 0.946 | 3.13 | 0.889 | 3.12 | 1.79 | 3.86 | 0.787 | 8.83 |

| Compound | GI50 (NCI-H23 lung) [µM] | TGI (NCI-H23 lung) [µM] | GI50 (SK-MEL-2 melanoma) [µM] | TGI (SK-MEL-2 melanoma) [µM] | GI50 (NCI-H226 lung) [µM] | TGI (NCI-H226 lung) [µM] | GI50 (KM12 colon) [µM] | TGI (KM12 colon) [µM] | GI50 (786-0 renal) [µM] | TGI (786-0 renal) [µM] | GI50 (LOX IMVI melanoma) [µM] | TGI (LOX IMVI melanoma) [µM] | GI50 (UO-31 renal) [µM] | TGI (UO-31 renal) [µM] | GI50 (HCT-15 colon) [µM] | TGI (HCT-15 colon) [µM] |
| --- | --- | --- | --- | --- | --- | --- | --- | --- | --- | --- | --- | --- | --- | --- | --- | --- |
| BrP(NC1CCCCCC1)(c1ccccc1)(c1ccccc1)c1ccccc1 | – | 27.4 | – | 8.53 | – | 33 | – | 3.37 | – | 32.3 | – | 10.4 | – | 17.4 | – | 46.3 |
| COc1cc(C2c3cc4c(cc3C3OC(=O)C2C3CO)OCO4)cc(OC)c1OC (centres undefined) | 0.0317 | > 100 | 0.0337 | > 100 | 0.0616 | > 100 | 0.0132 | > 100 | 0.0437 | > 100 | < 0.01 | > 100 | 0.0644 | > 100 | 0.0272 | > 100 |
| COc1ccc(C(=O)Nc2ncc(Cc3ccc(F)cc3)s2)cc1 | 0.368 | > 100 | 3.95 | > 100 | 0.0829 | > 100 | 0.0408 | 6.2 | 0.11 | > 100 | 0.0673 | > 100 | 0.908 | > 100 | 0.0429 | > 100 |
| COC(=O)C1CC2(c3ccc(C)cc3)C(c3ccc(C)cc3)=C(c3ccc(C)cc3)C1(c1ccc(C)cc1)S2=O (centres undefined) | > 100 | > 100 | > 100 | > 100 | > 100 | > 100 | > 100 | > 100 | 70.8 | > 100 | > 100 | > 100 | > 100 | > 100 | > 100 | > 100 |
| CC(=O)OC1CCC2(C)C(CCC3C2CCC2(C)C(C4=CC(=O)OC4)CCC32)C1 (centres undefined) | 3.46 | 14.5 | 7.72 | 34.4 | 22.1 | 65.1 | 22.2 | > 100 | 15.6 | 39.7 | 0.42 | > 100 | 16.1 | 49.9 | 16.2 | > 100 |
| Cn1cc(-c2csc(-c3cn(CCN4CCOCC4)c4ccc(F)cc34)n2)c2cccnc21 | 2.47 | 7.89 | 2.53 | 7.28 | 1.86 | 5.51 | 2.85 | 11.1 | 2.91 | 11.4 | – | – | 2.2 | 7.88 | 2.29 | 8.09 |
| COc1cc(/C=C/C(=O)c2c(C)n([O-])c3cc(C)c(C)cc3[n+]2=O)cc(OC)c1OC | 16.2 | 41.9 | 16.4 | 32.9 | 21.6 | 55.5 | 13.1 | 32.6 | 19.2 | 46.1 | 11.9 | 29.2 | 15.4 | 32.3 | 10.3 | 25.6 |
| Cc1cc(-c2ccccc2)c(C)n1Cc1ccc(Cl)cc1 | 8.24 | > 100 | 4.24 | 19.5 | 26.3 | > 100 | 4.26 | > 100 | 5.35 | 39.9 | 6.95 | > 100 | 5.45 | > 100 | 2.86 | > 100 |
| NC(=O)Nc1ccc2ncnc(Nc3ccc(Cl)cc3)c2c1 | 21.6 | 69 | 18.5 | 46.7 | 22.9 | > 100 | 33.4 | > 100 | 19.3 | 91.7 | 18.1 | 57.7 | 6.96 | > 65.6 | 20.1 | > 100 |
| CC1OC(OC2C(OC3C[C@@]4(C)C(C[C@H](O)[C@H]5[C@H](C6(C)CCC(C(C)(C)O)O6)CCC54C)[C@]4(C)CC[C@@H](O)C(C)(C)C34)OC(CO)C(O)C2O)C(O)C(O)C1O (some centres undefined) (tested in a mixture with another compound) | – | > 100 | – | > 100 | – | > 100 | – | > 100 | – | > 100 | – | > 100 | – | > 100 | – | > 100 |
| O=C(c1ccc(O)cc1)c1ccc(C(=O)c2ccc(O)cc2)cc1 | 75.3 | > 100 | > 100 | > 100 | 33.5 | > 100 | > 100 | > 100 | > 100 | > 100 | > 100 | > 100 | – | – | > 100 | > 100 |
| O=S(=O)(NC(=S)Nc1ccccc1)c1ccc(N2N=C3c4ccccc4CC3C2c2ccc(Cl)cc2)cc1 (centres undefined) | – | – | 23.4 | 47.9 | 41.4 | > 100 | 19.4 | 55.3 | 32.4 | > 100 | 19.5 | 39 | 19 | 38.1 | 22.4 | 54.8 |
| N/C(=N\OC(=O)NC(Cl)=C(Cl)Cl)c1cc(C(F)(F)F)cc(C(F)(F)F)c1 | – | > 100 | – | – | – | 55.9 | – | 31.1 | – | 31.2 | – | 31.8 | – | 33.9 | – | 48.4 |
| O=C(O)c1cn(C2CC2)c2cc(N3CCN(S(=O)(=O)c4ccc(Cl)c(Cl)c4)CC3)c(F)cc2c1=O | – | – | – | – | 3.58 | > 100 | 3.62 | > 100 | 4.02 | > 100 | – | – | 2.58 | > 100 | 3.3 | > 100 |
| O=C1C=C(N2CC2)c2ccccc2C1=O | 1.84 | 7.17 | 2.28 | 4.34 | – | – | 1.78 | 3.27 | 1.83 | 3.28 | 2.11 | 13 | 1.51 | 2.87 | 1.85 | 3.79 |
| CC12C=CC(C)(O1)C1C2c2ccccc2S1(=O)=O (centres undefined) | 46.6 | > 100 | – | – | 42 | > 100 | > 100 | > 100 | > 100 | > 100 | 46.6 | > 100 | > 100 | > 100 | 38.4 | > 100 |
